Experimental findings from patent US9920032B2, “Heterocyclic compounds useful as pim kinase inhibitors” (Incyte Corporation, priority 2015, dated 2018) are described below.

Format in all cases: biochemical
One experiment addresses Pim-2 (Homo sapiens (Human), UniProt Q9P1W9). Kind of experiment: Pim-2 kinase assay. As to conditions: 1 mM ATP; read-out: PIM2 IC50. The procedure, abridged: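 TR-FRET assay with 1 nM enzyme, 0.05 μM fluorescein-CREBtide and 1 mM ATP in Tris pH 7.5 buffer with MgCl2, DTT, BSA and Tween-20, run 2 h at 25° C. Stopped with EDTA and Tb-labelled anti-CREB pSer133 antibody, then read after 30 min at room temperature.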

In another experiment the target is Pim-3 (Homo sapiens (Human), UniProt Q86V86). Kind of experiment: Pim-3 kinase assay. As to conditions: 1 mM ATP; read-out: PIM3 IC50. The procedure, abridged: (§1)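 Enzyme at 2.5 pM (Pim-1) or 1.25 pM (Pim-3) reacted 1 h at 25° C with 1 mM ATP and 0.05 μM biotinylated BAD peptide, pH 7.5. Phospho-Ser112 BAD detected by antibody/Protein-A acceptor and streptavidin donor bead proximity signal after EDTA quench and 1 h dark incubation.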

The next experiment concerns the target Pim-1 (Homo sapiens (Human), UniProt P11309). Description: Pim-1 kinase assay. As to conditions: 1 mM ATP; read-out: PIM1 IC50. In short, it runs like this: as §1

Sequence of Pim-1 (P11309 whole entry): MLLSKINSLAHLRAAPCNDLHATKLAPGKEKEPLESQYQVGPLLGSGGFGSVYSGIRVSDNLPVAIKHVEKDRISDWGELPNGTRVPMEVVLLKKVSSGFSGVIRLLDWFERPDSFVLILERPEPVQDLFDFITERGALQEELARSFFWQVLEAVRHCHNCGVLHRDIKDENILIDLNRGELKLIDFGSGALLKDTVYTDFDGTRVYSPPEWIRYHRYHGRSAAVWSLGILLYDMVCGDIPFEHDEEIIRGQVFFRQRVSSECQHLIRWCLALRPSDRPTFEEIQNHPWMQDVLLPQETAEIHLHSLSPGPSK
Sequence of Pim-2 (Q9P1W9 whole entry): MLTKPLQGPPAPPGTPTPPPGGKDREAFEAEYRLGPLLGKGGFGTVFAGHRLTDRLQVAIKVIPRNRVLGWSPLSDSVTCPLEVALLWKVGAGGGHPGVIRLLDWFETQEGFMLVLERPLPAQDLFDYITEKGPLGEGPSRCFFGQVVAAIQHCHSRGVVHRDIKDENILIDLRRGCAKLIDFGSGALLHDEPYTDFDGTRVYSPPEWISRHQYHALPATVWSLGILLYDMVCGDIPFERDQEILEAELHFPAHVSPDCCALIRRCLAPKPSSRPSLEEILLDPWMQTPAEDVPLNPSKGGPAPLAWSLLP

The term IC50 denotes the point on the concentration scale where inhibition reaches its midpoint. In the case of `C[C@@H]1C[C@H](N)C[C@H](c2ccncc2NC(=O)c2ccc(F)c3cc(-c4cn[nH]c4)cnc23)C1` [Example 66, N-(4-((1R,3S,5S)-3-amino-5-methylcyclohexyl)pyridin-3-yl)-5-fluoro-3-(1H-pyrazol-4-yl)quinoline-8-carboxamide], the IC50 on Pim-2 was 0.1 to 1 µM; on Pim-3 it was no more than 0.01 µM; at Pim-1, no more than 0.01 µM.

As to `C[C@@H]1C[C@H](N)C[C@H](c2ccncc2NC(=O)c2ccc(F)c3cc(N4CC5CCC4C5)cnc23)C1` (stereo partly drawn) [Example 96, N-(4-((1R,3S,5S)-3-Amino-5-methylcyclohexyl)pyridin-3-yl)-3-(2-azabicyclo[2.2.1]heptan-2-yl)-5-fluoroquinoline-8-carboxamide], the IC50 at Pim-2 is no more than 0.1 µM; at Pim-3, no more than 0.01 µM; at Pim-1 it was no more than 0.01 µM.

`C[C@@H]1C[C@H](N)C[C@H](c2ccncc2NC(=O)c2ccc(F)c3cc(N4CCN(S(C)(=O)=O)C[C@H]4C)cnc23)C1` [Example 86, N-(4-((1R,3S,5S)-3-Amino-5-methylcyclohexyl)pyridin-3-yl)-5-fluoro-3-((R)-2-methyl-4-(methylsulfonyl)piperazin-1-yl)quinoline-8-carboxamide]: the IC50 is no more than 0.1 µM at Pim-2, no more than 0.01 µM on Pim-3 and no more than 0.01 µM at Pim-1.

On to `C[C@@H]1C[C@H](N)C[C@H](c2ccncc2NC(=O)c2ccc(F)c3cc(N4CC[C@H]4CO)cnc23)C1` [Example 123, N-(4-((1R,3S,5S)-3-Amino-5-methylcyclohexyl)pyridin-3-yl)-5-fluoro-3-((S)-2-(hydroxymethyl)azetidin-1-yl)quinoline-8-carboxamide], for which the figures for the IC50 on Pim-2, on Pim-3 and on Pim-1 were no more than 0.1 µM, no more than 0.01 µM and no more than 0.01 µM, respectively.

On to `C[C@@H]1C[C@H](N)C[C@H](c2ccncc2NC(=O)c2ccc(F)c3cc(N4CC5CC(C4)O5)cnc23)C1` [Example 81, N-(4-((1R,3S,5S)-3-Amino-5-methylcyclohexyl)pyridin-3-yl)-3-(6-oxa-3-azabicyclo[3.1.1]heptan-3-yl)-5-fluoroquinoline-8-carboxamide], for which the IC50 at Pim-2 was no more than 0.1 µM; on Pim-3, no more than 0.01 µM; on Pim-1 it was no more than 0.01 µM.

`C[C@@H]1C[C@H](N)C[C@H](c2ccncc2NC(=O)c2ccc(F)c3cc(C#CC4CC4)cnc23)C1` [Example 14, N-{4-[(1R,3S,5S)-3-Amino-5-methylcyclohexyl]pyridin-3-yl}-3-(cyclopropylethynyl)-5-fluoroquinoline-8-carboxamide]: the IC50 at Pim-2 was 0.1 to 1 µM; on Pim-3, no more than 0.01 µM; at Pim-1 it was no more than 0.01 µM.

As to `C[C@@H]1C[C@H](N)C[C@H](c2ccncc2NC(=O)c2ccc(F)c3cc(N4CCCCCC4)cnc23)C1` [Example 76, N-(4-((1R,3S,5S)-3-Amino-5-methylcyclohexyl)pyridin-3-yl)-3-(azepan-1-yl)-5-fluoroquinoline-8-carboxamide], the IC50 on Pim-2 is no more than 0.1 µM; at Pim-3, no more than 0.01 µM; at Pim-1, no more than 0.01 µM.

As for `C[C@@H]1C[C@H](N)C[C@H](c2ccncc2NC(=O)c2ccc(F)c3cc(N4CCCS4(=O)=O)cnc23)C1` [Example 138, N-(4-((1R,3S,5S)-3-Amino-5-methylcyclohexyl)pyridin-3-yl)-3-(1,1-dioxidoisothiazolidin-2-yl)-5-fluoroquinoline-8-carboxamide], the IC50 was 0.1 to 1 µM at Pim-2, no more than 0.01 µM on Pim-3 and no more than 0.01 µM on Pim-1.

`C[C@@H]1C[C@H](N)C[C@H](c2ccncc2NC(=O)c2ccc(F)c3cc(N4CCSCC4)cnc23)C1` [Example 73, N-(4-((1R,3S,5S)-3-Amino-5-methylcyclohexyl)pyridin-3-yl)-5-fluoro-3-thiomorpholinoquinoline-8-carboxamide]: the IC50 is no more than 0.1 µM on Pim-2, no more than 0.01 µM on Pim-3 and no more than 0.01 µM on Pim-1.

For the compound `C[C@@H]1C[C@H](N)C[C@H](c2ccncc2NC(=O)c2ccc(F)c3cc(-c4ccc(C(F)(F)F)nc4)cnc23)C1` [Example 61, N-(4-((1R,3S,5S)-3-Amino-5-methylcyclohexyl)pyridin-3-yl)-5-fluoro-3-(6-(trifluoromethyl)pyridin-3-yl)quinoline-8-carboxamide], the IC50 is 1 to 10 µM on Pim-2, 0.01 to 0.05 µM at Pim-3 and no more than 0.01 µM on Pim-1.

On to `C[C@@H]1C[C@H](N)C[C@H](c2ccncc2NC(=O)c2ccc(F)c3cc(C4CCOCC4)cnc23)C1` [Example 31, N-{4-[(1R,3S,5S)-3-Amino-5-methylcyclohexyl]pyridin-3-yl}-5-fluoro-3-(tetrahydro-2H-pyran-4-yl)quinoline-8-carboxamide], for which the figures for the IC50 at Pim-2, on Pim-3 and at Pim-1 were 0.1 to 1 µM, no more than 0.01 µM and no more than 0.01 µM, respectively.

As for `Cc1ccc(N(C)c2cnc3c(C(=O)Nc4cnccc4[C@@H]4C[C@H](C)C[C@H](N)C4)ccc(F)c3c2)c(C)n1` [Example 141, N-(4-((1R,3S,5S)-3-Amino-5-methylcyclohexyl)pyridin-3-yl)-3-((2,6-dimethylpyridin-3-yl)(methyl)amino)-5-fluoroquinoline-8-carboxamide], the IC50 was no more than 0.1 µM at Pim-2, no more than 0.01 µM at Pim-3 and no more than 0.01 µM on Pim-1.

Consider `C[C@@H]1C[C@H](N)C[C@H](c2ccncc2NC(=O)c2ccc(F)c3cc(NCCF)cnc23)C1` [Example 26, N-{4-[(1R,3S,5S)-3-Amino-5-methylcyclohexyl]pyridin-3-yl}-5-fluoro-3-[(2-fluoroethyl)amino]quinoline-8-carboxamide], for which the results for the IC50 at Pim-2, at Pim-3 and at Pim-1 were no more than 0.1 µM, no more than 0.01 µM and no more than 0.01 µM, respectively.

Regarding `C[C@@H]1C[C@H](N)C[C@H](c2ccncc2NC(=O)c2ccc(F)c3cc(N4CCN(C(=O)N(C)C)CC4)cnc23)C1` [Example 82, N-(4-((1R,3S,5S)-3-Amino-5-methylcyclohexyl)pyridin-3-yl)-3-(4-(dimethylcarbamoyl)piperazin-1-yl)-5-fluoroquinoline-8-carboxamide], the IC50 is 0.1 to 1 µM on Pim-2, no more than 0.01 µM on Pim-3 and no more than 0.01 µM on Pim-1.

With `CC1CCCCN1c1cnc2c(C(=O)Nc3cnccc3[C@@H]3C[C@H](C)C[C@H](N)C3)cccc2c1` (stereo partly drawn) [Example 70, N-(4-((1R,3S,5S)-3-Amino-5-methylcyclohexyl)pyridin-3-yl)-3-(2-methylpiperidin-1-yl)quinoline-8-carboxamide], the IC50 was 0.1 to 1 µM at Pim-2, no more than 0.01 µM on Pim-3 and no more than 0.01 µM at Pim-1.

On to `C[C@@H]1C[C@H](N)C[C@H](c2ccncc2NC(=O)c2ccc(F)c3cc(N(C)c4cnccc4C(F)(F)F)cnc23)C1` [Example 143, N-(4-((1R,3S,5S)-3-Amino-5-methylcyclohexyl)pyridin-3-yl)-5-fluoro-3-(methyl(4-(trifluoromethyl)pyridin-3-yl)amino)quinoline-8-carboxamide], for which the half-inhibitory concentration (IC50) was no more than 0.1 µM at Pim-2, no more than 0.01 µM at Pim-3 and no more than 0.01 µM at Pim-1.

In the case of `CO[C@@H]1C[C@H](C)N(c2cnc3c(C(=O)Nc4cnccc4[C@@H]4C[C@H](C)C[C@H](N)C4)ccc(F)c3c2)C1` [Example 155, N-(4-((1R,3S,5S)-3-Amino-5-methylcyclohexyl]pyridin-3-yl}-5-fluoro-3-[(2S,4R)-4-methoxy-2-methylpyrrolidin-1-yl]quinoline-8-carboxamide], the figures for the IC50 on Pim-2, at Pim-3 and at Pim-1 were no more than 0.1 µM, no more than 0.01 µM and no more than 0.01 µM, respectively.

Regarding `CO[C@@H]1CCN(c2cnc3c(C(=O)Nc4cnccc4[C@@H]4C[C@H](C)C[C@H](N)C4)ccc(F)c3c2)[C@@H](C)C1` [Example 160, N-(4-((1R,3S,5S)-3-Amino-5-methylcyclohexyl)pyridin-3-yl)-5-fluoro-3-((2S,4R)-4-methoxy-2-methylpiperidin-1-yl)quinoline-8-carboxamide], the IC50 on Pim-2 is no more than 0.1 µM; at Pim-3, no more than 0.01 µM; on Pim-1 it was no more than 0.01 µM.

For `CC1CN(c2cnc3c(C(=O)Nc4cnccc4[C@@H]4C[C@H](C)C[C@H](N)C4)ccc(F)c3c2)CC(C)O1` (stereo partly drawn) [Example 37, N-(4-((1R,3S,5S)-3-Amino-5-methylcyclohexyl)pyridin-3-yl)-3-(2,6-dimethylmorpholino)-5-fluoroquinoline-8-carboxamide], the IC50 at Pim-2 was 1 to 10 µM; at Pim-3, 0.01 to 0.05 µM; at Pim-1 it was no more than 0.01 µM.

For the compound `C[C@@H]1C[C@H](N)C[C@H](c2ccncc2NC(=O)c2ccc(F)c3cc(N4C[C@H]5C[C@@H]4CN5S(C)(=O)=O)cnc23)C1` [Example 87, N-(4-((1R,3S,5S)-3-Amino-5-methylcyclohexyl)pyridin-3-yl)-5-fluoro-3-((1R,4R)-5-(methylsulfonyl)-2,5-diazabicyclo[2.2.1]heptan-2-yl)quinoline-8-carboxamide], the IC50 on Pim-2 was 0.1 to 1 µM; at Pim-3, no more than 0.01 µM; at Pim-1, no more than 0.01 µM.

`C[C@@H]1C[C@H](N)C[C@H](c2ccncc2NC(=O)c2ccc(F)c3cc(N(C)C4CCC4)cnc23)C1` [Example 24, N-{4-[(1R,3S,5S)-3-Amino-5-methylcyclohexyl]pyridin-3-yl}-3-[cyclobutyl(methyl)amino]-5-fluoroquinoline-8-carboxamide]: the IC50 is 0.1 to 1 µM on Pim-2, no more than 0.01 µM on Pim-3 and no more than 0.01 µM at Pim-1.
